Drawing on patent publication US20170022171A1, “2,5-DISUBSTITUTED CYCLOPENTANECARBOXYLIC ACIDS AND THEIR USE” (Bayer Pharma Aktiengesellschaft, priority 2014, published 2017), this text covers IC50 for 12 compounds.

Common to all, as to assay type: biochemical
One experiment has as its target T1, mouse MMP-3 (Mus musculus, UniProt P28862).
T1 construct: purchased R&D Systems 548-MP
Kind of experiment: In vitro mouse MMP-3 inhibition test. From the text:
(§1) The MMP-mediated amidolytic cleavage of a suitable peptide substrate leads to an increase in fluorescent light here too. The signal intensity of the fluorescent light is directly proportional to the enzyme activity. The active concentration of a test compound at which half the enzyme is inhibited (50% signal intensity of the fluorescent light) is reported as the IC50 value.
(§2) Recombinant mouse MMP-3 (from R&D Systems, 548-MP) is chemically activated in accordance with the manufacturer's instructions using APMA. 1 μl of the test compound to be analysed (as a solution in DMSO, suitable concentrations, for example, 1 nM to 30 μM) is pipetted into 24 μl of activated enzyme (final concentration, for example, 0.5 nM) in reaction buffer (50 mM Tris/HCl pH 7.5, 10 mM CaCl2, 150 mM NaCl, 0.05% Brij®-35) in a white 384-hole microtiter plate (MTP). The enzymatic reaction is started by adding the intramolecularly quenched Mca-Arg-Pro-Lys-Pro-Val-Glu-Nval-Trp-Arg-Lys(Dnp)-NH2 substrate (final concentration, for example, 5 μM; R&D Systems, ES-002), so as to result in a total test volume of 50 μl. The course of the MMP-3 reaction is measured by measuring the fluorescence intensity (excitation 320 nm, emission 410 nm) over a suitable period of time (for example over 120 min at a temperature of 32° C.).

For another experiment, the target named is T2, mouse MMP-7 (Mus musculus, UniProt Q10738).
T2 construct: purchased R&D Systems 2967-MP
T2 sequence (Q10738 95-264): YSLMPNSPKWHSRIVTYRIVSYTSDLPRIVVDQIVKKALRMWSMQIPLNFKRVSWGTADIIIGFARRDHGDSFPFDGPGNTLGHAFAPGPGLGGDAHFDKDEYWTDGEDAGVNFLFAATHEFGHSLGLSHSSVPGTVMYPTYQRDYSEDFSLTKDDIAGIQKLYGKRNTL
Put plainly: In vitro mouse MMP-7 inhibition test.
Excerpt: as §1
as §2, with “MMP-7” for “MMP-3”, “2967-MP)” for “548-MP)”, “Mca-Lys-Pro-Leu-Gly-Leu-Dpa(Dnp)-Ala-Arg-NH2” for “Mca-Arg-Pro-Lys-Pro-Val-Glu-Nval-Trp-Arg-Lys(Dnp)-NH2”, “ES-010),” for “ES-002),”

A further experiment has as its target T3, mouse MMP-12 (Mus musculus, UniProt P34960).
T3 construct: purchased R&D Systems 3467-MP
Kind of experiment: In vitro mouse MMP-12 inhibition test (standard or high-sensitivity).
Excerpt: as §1
Recombinant mouse MMP-12 (from R&D Systems, 3467-MP) is autocatalytically activated in accordance with the manufacturer's instructions. 1 μl of the test compound to be analysed (as a solution in DMSO, suitable concentrations, for example, 1 nM to 30 μM) is pipetted into 24 μl of activated enzyme (final concentration, for example, 1 nM) in reaction buffer (50 mM Tris/HCl pH 7.5, 10 mM CaCl2, 150 mM NaCl, 0.05% Brij®-35) in a white 384-hole microtiter plate (MTP). The enzymatic reaction is started by adding the intramolecularly quenched Mca-Lys-Pro-Leu-Gly-Leu-Dpa(Dnp)-Ala-Arg-NH2 substrate (final concentration, for example, 5 μM; R&D Systems, ES-010), so as to result in a total test volume of 50 The course of the MMP-12 reaction is measured by measuring the fluorescence intensity (excitation 320 nm, emission 410 nm) over a suitable period of time (for example over 120 min at a temperature of 32° C.).
In this case, an enzyme concentration ten times lower is used (final concentration, for example, 0.1 nM) in order to achieve an elevated test sensitivity. The incubation period chosen for the test is correspondingly longer (for example 16 hours).

In a further experiment the target is T4, mouse MMP-8 (Mus musculus, UniProt O70138).
T4 construct: purchased R&D Systems 2904-MP
T4 sequence (O70138 101-465): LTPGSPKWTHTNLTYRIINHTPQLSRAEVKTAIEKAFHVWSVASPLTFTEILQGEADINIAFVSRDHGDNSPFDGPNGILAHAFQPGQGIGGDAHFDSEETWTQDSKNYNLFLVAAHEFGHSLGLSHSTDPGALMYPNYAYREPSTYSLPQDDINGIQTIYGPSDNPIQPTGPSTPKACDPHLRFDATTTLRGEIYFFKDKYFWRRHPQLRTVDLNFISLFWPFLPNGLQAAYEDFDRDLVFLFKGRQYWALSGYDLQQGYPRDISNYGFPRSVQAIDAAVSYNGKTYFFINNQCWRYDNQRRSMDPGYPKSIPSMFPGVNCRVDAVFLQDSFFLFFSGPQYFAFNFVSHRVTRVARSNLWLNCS
Kind of experiment: In vitro mouse MMP-8 inhibition test.
Excerpt: as §1
as §2, with “MMP-8” for “MMP-3”, “2904-MP)” for “548-MP)”, “2” for “0.5”, “Mca-Lys-Pro-Leu-Gly-Leu-Dpa(Dnp)-Ala-Arg-NH2” for “Mca-Arg-Pro-Lys-Pro-Val-Glu-Nval-Trp-Arg-Lys(Dnp)-NH2”, “ES-010),” for “ES-002),”

pIC50: −log10 of the molar value.

T3 sequence (P34960 110-473): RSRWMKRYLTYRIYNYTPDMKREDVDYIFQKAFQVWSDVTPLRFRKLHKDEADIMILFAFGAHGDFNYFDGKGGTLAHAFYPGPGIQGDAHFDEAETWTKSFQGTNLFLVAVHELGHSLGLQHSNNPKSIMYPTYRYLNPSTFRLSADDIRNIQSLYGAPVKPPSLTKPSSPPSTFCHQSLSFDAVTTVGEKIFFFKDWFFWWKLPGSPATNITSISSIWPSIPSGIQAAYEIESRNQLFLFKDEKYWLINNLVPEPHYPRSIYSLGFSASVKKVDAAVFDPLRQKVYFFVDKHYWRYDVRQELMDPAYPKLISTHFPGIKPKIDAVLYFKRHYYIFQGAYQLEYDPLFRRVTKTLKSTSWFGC
T1 sequence (P28862 100-477): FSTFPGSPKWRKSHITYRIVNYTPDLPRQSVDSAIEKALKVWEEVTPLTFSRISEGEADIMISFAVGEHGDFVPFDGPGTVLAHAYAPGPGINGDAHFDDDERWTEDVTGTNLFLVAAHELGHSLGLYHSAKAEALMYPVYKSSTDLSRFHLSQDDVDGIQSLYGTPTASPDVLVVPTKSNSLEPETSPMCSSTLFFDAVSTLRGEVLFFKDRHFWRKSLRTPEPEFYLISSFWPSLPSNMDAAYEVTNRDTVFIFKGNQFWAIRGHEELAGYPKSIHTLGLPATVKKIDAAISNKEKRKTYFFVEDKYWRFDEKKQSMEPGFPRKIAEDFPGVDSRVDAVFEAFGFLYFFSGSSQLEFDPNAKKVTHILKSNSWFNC

The pIC50 is the negative decadic logarithm of the IC50, by convention in mol/L. Turning to “(+)-(1RS,2SR,5RS)-2-{[4-Oxo-6-(trifluoromethyl)-1,2,3-benzotriazin-3(4H)-yl]methyl}-5-{4-[(2-phenylethy)sulphanyl]benzoyl}cyclopentanecarboxylic acid [Example 83]”, the pIC50 at mouse MMP-3 is 5.23; at mouse MMP-7, 7.09; against mouse MMP-12, 8.24; against mouse MMP-8 it was 5.96.
For `O=C(O)[C@@H]1[C@@H](Cn2nnc3ccc(C(F)(F)F)cc3c2=O)CC[C@H]1C(=O)c1ccc(SCc2ccccc2)cc1` (single isomer, unassigned) [Example 75, (+)-(1RS,2RS,5SR)-2-[4-(Benzylsulphanyl)benzoyl]-5-{[4-oxo-6-(trifluoromethyl)-1,2,3-benzotriazin-3(4H)-yl]methyl}cyclopentanecarboxylic acid], in that order: 5.23, 6.92, 8.64 and 6.39.
Consider `Cc1ccc2nnn(C[C@@H]3CC[C@H](C(=O)c4ccc(OCc5cccc(Cl)c5)cc4)[C@H]3C(=O)O)c(=O)c2c1` (racemic) [Example 103, (+/−)-(1RS,2RS,5SR)-2-{4-[(3-Chlorobenzyl)oxy]benzoyl}-5-[(6-methyl-4-oxo-1,2,3-benzotriazin-3(4H)-yl)methyl]cyclopentanecarboxylic acid], for which the pIC50 is 5.96 against mouse MMP-3, 7.55 on mouse MMP-7, 8.64 on mouse MMP-12 and 6.57 at mouse MMP-8.
Consider `O=C(O)[C@@H]1[C@@H](Cn2nnc3ccc(C(F)(F)F)cc3c2=O)CC[C@H]1C(=O)c1ccc(SCc2cccc(Cl)c2)cc1` (single isomer, unassigned) [Example 77, (+)-(1RS,2RS,5SR)-2-{4-[(3-Chlorobenzyl)sulphanyl]benzoyl}-5-{[4-oxo-6-(trifluoromethyl)-1,2,3-benzotriazin-3(4H)-yl]methyl}cyclopentanecarboxylic acid], for which the negative logarithm of the IC50 (pIC50) against mouse MMP-3 was 5.85; at mouse MMP-7 it was 7.27; at mouse MMP-12, 8.70; against mouse MMP-8, 6.89.
On to `O=C(O)[C@@H]1[C@@H](Cn2nnc3ccc(C(F)(F)F)cc3c2=O)CC[C@H]1C(=O)c1ccc(SCc2ccc(Cl)c(Cl)c2)cc1` (single isomer, unassigned) [Example 80, (+)-(1RS,2RS,5SR)-2-{4-[(3,4-Dichlorobenzyl)sulphanyl]benzoyl}-5-{[4-oxo-6-(trifluoromethyl)-1,2,3-benzotriazin-3(4H)-yl]methyl}cyclopentanecarboxylic acid], for which the pIC50 on mouse MMP-3 is 5.60; against mouse MMP-7 it was 6.89; against mouse MMP-12 it was 8.37; at mouse MMP-8, 6.89.
As for `O=C(O)[C@H]1[C@H](Cn2nnc3ccccc3c2=O)CC[C@@H]1C(=O)c1ccc(OCC2CCCC2)cc1` (racemic) [Example 4, (+/−)-(1RS,2RS,5SR)-2-[4-(Cyclopentylmethoxy)benzoyl]-5-[(4-oxo-1,2,3-benzotriazin-3(4H)-yl)methyl]cyclopentanecarboxylic acid], the pIC50 was 5.89 against mouse MMP-3, 6.80 against mouse MMP-7, 8.85 against mouse MMP-12 and 7.38 against mouse MMP-8.
In the case of `O=C(O)[C@@H]1[C@@H](Cn2nnc3ccc(C(F)(F)F)cc3c2=O)CC[C@H]1C(=O)c1ccc(OCCC2CCCCC2)cc1` (single isomer, unassigned) [Example 52, (+)-(1RS,2RS,5SR)-2-[4-(2-Cyclohexylethoxy)benzoyl]-5-{[4-oxo-6-(trifluoromethyl)-1,2,3-benzotriazin-3(4H)-yl]methyl}cyclopentanecarboxylic acid], the pIC50 is 5.16 on mouse MMP-3, 6.77 against mouse MMP-7, 8.00 at mouse MMP-12 and 6.80 against mouse MMP-8.
For `O=C(O)[C@H]1[C@H](Cn2nnc3ccccc3c2=O)CC[C@@H]1C(=O)c1ccc(OCCC2CCCCC2)cc1` (racemic) [Example 5, (+/−)-(1RS,2RS,5SR)-2-[4-(2-Cyclohexylethoxy)benzoyl]-5-[(4-oxo-1,2,3-benzotriazin-3(4H)-yl)methyl]cyclopentanecarboxylic acid], the pIC50 is 5.89 against mouse MMP-3, 6.80 against mouse MMP-7, 8.74 on mouse MMP-12 and 6.44 on mouse MMP-8.
In the case of `Cc1ccc2nnn(C[C@@H]3CC[C@H](C(=O)c4ccc(OCc5cccc(C(F)(F)F)c5)cc4)[C@H]3C(=O)O)c(=O)c2c1` (racemic) [Example 100, (+/−)-(1RS,2SR,5RS)-2-[(6-Methyl-4-oxo-1,2,3-benzotriazin-3(4H)-yl)methyl]-5-(4-{[3-(trifluoromethyl)benzyl]oxy}benzoyl)cyclopentanecarboxylic acid], the pIC50 was 5.74 on mouse MMP-3, 6.82 against mouse MMP-7, 8.77 against mouse MMP-12 and 6.60 against mouse MMP-8.
Take `Cc1cccc(COc2ccc(C(=O)[C@@H]3CC[C@H](Cn4nnc5ccc(C)cc5c4=O)[C@H]3C(=O)O)cc2)c1` (single isomer, unassigned) [Example 98, (+)-(1RS,2RS,5SR)-2-{4-[(3-Methylbenzyl)oxy]benzoyl}-5-[(6-methyl-4-oxo-1,2,3-benzotriazin-3(4H)-yl)methyl]cyclopentanecarboxylic acid]: the pIC50 on mouse MMP-3 is 6.14; on mouse MMP-7 it was 7.54; at mouse MMP-12, 8.92; on mouse MMP-8 it was 6.55.
Consider `Cc1ccc2nnn(C[C@H]3CC[C@@H](C(=O)c4ccc(OCC5CCCCC5)cc4)[C@@H]3C(=O)O)c(=O)c2c1` (single isomer, unassigned) [Example 117, (+)-(1RS,2RS,5SR)-2-[4-(Cyclohexylmethoxy)benzoyl]-5-[(6-methyl-4-oxo-1,2,3-benzotriazin-3(4H)-yl)methyl]cyclopentanecarboxylic acid], for which the pIC50 was 6.33 at mouse MMP-3, 7.80 on mouse MMP-7, 9.21 against mouse MMP-12 and 7.89 on mouse MMP-8.
Take “(+)-(1RS,2RS,5SR)-2-{4-[(3,4-Dichlorobenzyl)oxy]benzoyl}-5-{[4-oxo-6-(trifluoromethyl)-1,2,3-benzotriazin-3(4H)-yl]methyl}cyclopentanecarboxylic acid [Example 28]”: the pIC50 against mouse MMP-3 was 5.09; at mouse MMP-7, 6.85; on mouse MMP-12, 8.15; at mouse MMP-8 it was 6.92.
